For experiment [1], the target named is T1, Progesterone receptor (Homo sapiens, UniProt P06401).
T1 sequence (P06401 whole entry): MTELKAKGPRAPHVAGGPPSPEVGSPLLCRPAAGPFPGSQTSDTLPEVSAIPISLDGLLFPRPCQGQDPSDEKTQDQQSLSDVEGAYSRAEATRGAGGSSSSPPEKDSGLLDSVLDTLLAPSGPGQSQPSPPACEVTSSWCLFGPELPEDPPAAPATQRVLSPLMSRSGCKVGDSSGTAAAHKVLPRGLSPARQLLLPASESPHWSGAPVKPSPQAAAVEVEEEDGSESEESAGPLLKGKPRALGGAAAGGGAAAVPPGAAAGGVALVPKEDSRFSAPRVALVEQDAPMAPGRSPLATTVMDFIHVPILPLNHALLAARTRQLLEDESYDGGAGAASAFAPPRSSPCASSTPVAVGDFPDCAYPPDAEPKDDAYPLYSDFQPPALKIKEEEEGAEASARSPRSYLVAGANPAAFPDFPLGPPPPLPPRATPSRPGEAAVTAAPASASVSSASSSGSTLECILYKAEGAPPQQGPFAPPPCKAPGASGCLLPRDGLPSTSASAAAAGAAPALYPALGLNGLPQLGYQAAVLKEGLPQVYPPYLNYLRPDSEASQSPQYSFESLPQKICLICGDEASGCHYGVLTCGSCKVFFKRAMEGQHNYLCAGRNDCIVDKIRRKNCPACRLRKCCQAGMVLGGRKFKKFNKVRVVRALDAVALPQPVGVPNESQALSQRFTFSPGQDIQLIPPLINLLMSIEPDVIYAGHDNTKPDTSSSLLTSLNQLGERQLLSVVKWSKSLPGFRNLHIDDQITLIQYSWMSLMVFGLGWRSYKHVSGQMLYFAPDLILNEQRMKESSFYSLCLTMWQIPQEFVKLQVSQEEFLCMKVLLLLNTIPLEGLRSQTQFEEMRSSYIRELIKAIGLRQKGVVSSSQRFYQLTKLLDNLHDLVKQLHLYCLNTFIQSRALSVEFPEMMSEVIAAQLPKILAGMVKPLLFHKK
As to the kind of experiment: Effective concentration for antagonistic activity towards human progesterone receptor in CV-1 cells; not active (<20% efficacy and/or >10 mM potency). Type of experiment: functional, cell-based.

Experiment [2] deals with T2, Progesterone receptor (Homo sapiens) (UniProt P06401).
T2 sequence (whole entry): T1 sequence (P06401 whole entry)
As to the kind of experiment: Agonist efficacy for human progesterone receptor in T47D human breast cancer cell; not active (<20% efficacy and/or >10 mM potency). Type of experiment: functional, cell-based.

The target of experiment [3] is T1, Progesterone receptor. As to the kind of experiment: Inhibition of human progesterone receptor in T47D human breast cancer cell; not active (<20% efficacy and/or >10 mM potency). The class given is cell-based.
In experiment [4] the target is T2, Progesterone receptor (Homo sapiens). Put plainly: Antagonist efficacy for human progesterone receptor in CV-1 cells; not active (<20% efficacy and/or >10 mM potency). The class given is functional, cell-based.
The target of experiment [5] is T1, Progesterone receptor. Put plainly: Effective concentration for human progesterone receptor in T47D human breast cancer cell; not active (<20% efficacy and/or >10 mM potency). The conditions noted are these: cancer cell lines.
The target of experiment [6] is T1, Progesterone receptor.
Description: Binding affinity at human progesterone receptor.
Experiment [7] has as its target T1, Progesterone receptor. As to the kind of experiment: Binding towards human progesterone receptor; Not tested.
Experiment [8] deals with T1, Progesterone receptor. The source holds these as a separate data set.
Description: Antagonistic activity at human progesterone receptor in CV-1 cells.
Experiment [9] addresses T3, Estrogen receptor (Homo sapiens) (UniProt Q92731+P03372). Put plainly: Antagonist efficacy for Estrogen receptor. Type of experiment: functional.
For experiment [10], the target named is T1, Progesterone receptor. As to the kind of experiment: Effective concentration for antagonistic activity towards human progesterone in CV-1 cells. Type of experiment: functional, cell-based.
For experiment [11], the target named is T2, Progesterone receptor (Homo sapiens). As to the kind of experiment: Agonist efficacy for human progesterone in T47D human breast cancer cell. Type of experiment: functional, cell-based.
Experiment [12] shares this target. Put plainly: Antagonist efficacy for human progesterone in CV-1 cells. Type of experiment: functional, cell-based.
Experiment [13] shares this target. Put plainly: Antagonist efficacy for human progesterone in T47D human breast cancer cell. The class given is functional, cell-based.
Experiment [14] deals with T1, Progesterone receptor. As to the kind of experiment: Effective concentration for human progesterone in T47D human breast cancer cell. The class given is cell-based, Cancer cell lines.
Experiment [15] has as its target T1, Progesterone receptor. Put plainly: Binding towards human progesterone receptor.
For experiment [16], the target named is T1, Progesterone receptor. As to the kind of experiment: Inhibition of human progesterone in T47D human breast cancer cell. The class given is cell-based.
For a further experiment, the target named is T4, Glucocorticoid receptor (Homo sapiens, UniProt P04150).
T4 sequence (P04150 whole entry): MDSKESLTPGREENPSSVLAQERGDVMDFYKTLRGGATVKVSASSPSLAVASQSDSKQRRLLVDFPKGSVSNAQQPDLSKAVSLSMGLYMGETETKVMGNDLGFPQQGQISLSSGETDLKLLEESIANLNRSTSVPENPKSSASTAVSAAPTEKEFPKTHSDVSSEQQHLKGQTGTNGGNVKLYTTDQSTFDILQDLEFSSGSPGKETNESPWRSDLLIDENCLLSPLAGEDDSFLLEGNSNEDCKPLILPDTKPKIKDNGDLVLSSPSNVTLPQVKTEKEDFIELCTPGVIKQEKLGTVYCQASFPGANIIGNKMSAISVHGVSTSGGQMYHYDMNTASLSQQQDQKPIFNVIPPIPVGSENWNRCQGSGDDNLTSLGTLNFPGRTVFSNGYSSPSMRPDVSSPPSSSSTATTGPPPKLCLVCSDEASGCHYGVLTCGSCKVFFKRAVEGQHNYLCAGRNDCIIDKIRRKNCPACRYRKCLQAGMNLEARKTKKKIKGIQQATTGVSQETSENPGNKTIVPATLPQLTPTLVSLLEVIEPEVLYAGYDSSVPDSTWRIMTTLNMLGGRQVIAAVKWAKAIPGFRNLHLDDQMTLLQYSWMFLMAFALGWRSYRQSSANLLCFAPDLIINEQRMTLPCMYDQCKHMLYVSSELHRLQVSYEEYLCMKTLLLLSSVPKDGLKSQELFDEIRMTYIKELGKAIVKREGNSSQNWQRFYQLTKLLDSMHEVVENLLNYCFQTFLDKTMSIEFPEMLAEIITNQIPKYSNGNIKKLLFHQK
As to the kind of experiment: Inhibition of antagonist activity towards glucocorticoid receptor; not active. The class given is functional.

The target of experiment [17] is T3, Estrogen receptor (Homo sapiens). Put plainly: Antagonist efficacy for Estrogen receptor; Not active. The class given is functional.
In experiment [18] the target is T5, Glucocorticoid receptor (Homo sapiens) (UniProt P04150).
T5 sequence (whole entry): T4 sequence (P04150 whole entry)
Put plainly: Antagonist efficacy for glucocorticoid receptor; not active. The class given is functional.

The target in experiment [19] is T6, Mineralocorticoid receptor (Homo sapiens, UniProt P08235).
T6 sequence (P08235 whole entry): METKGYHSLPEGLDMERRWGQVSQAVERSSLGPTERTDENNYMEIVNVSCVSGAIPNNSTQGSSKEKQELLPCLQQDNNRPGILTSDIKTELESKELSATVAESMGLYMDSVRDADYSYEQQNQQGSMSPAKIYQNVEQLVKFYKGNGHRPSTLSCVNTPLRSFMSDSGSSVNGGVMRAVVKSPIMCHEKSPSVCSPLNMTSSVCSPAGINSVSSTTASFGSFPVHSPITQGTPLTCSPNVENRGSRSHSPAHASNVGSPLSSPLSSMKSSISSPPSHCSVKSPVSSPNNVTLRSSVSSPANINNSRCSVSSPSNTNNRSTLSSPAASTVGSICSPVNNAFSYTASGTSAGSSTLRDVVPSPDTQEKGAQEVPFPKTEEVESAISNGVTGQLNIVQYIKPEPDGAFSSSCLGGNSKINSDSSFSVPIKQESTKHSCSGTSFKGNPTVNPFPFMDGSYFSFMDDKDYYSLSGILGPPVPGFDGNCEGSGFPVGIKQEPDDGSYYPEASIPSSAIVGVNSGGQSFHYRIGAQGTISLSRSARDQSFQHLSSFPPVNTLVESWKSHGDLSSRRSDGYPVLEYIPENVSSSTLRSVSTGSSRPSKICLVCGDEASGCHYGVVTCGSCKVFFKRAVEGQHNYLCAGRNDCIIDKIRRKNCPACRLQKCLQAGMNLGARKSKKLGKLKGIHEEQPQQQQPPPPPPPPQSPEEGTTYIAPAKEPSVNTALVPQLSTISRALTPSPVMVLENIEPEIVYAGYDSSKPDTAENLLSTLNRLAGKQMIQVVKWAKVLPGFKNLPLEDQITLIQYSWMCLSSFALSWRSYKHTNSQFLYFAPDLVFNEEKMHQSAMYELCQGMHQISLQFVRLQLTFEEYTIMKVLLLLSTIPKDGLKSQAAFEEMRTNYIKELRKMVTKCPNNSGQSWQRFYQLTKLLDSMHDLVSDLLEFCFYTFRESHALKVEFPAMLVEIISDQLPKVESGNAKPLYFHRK
As to the kind of experiment: Inhibition of antagonist activity towards mineralocorticoid receptor (hMR). The class given is functional.

The target in experiment [20] is T7, Mineralocorticoid receptor (Homo sapiens) (UniProt P08235).
T7 sequence (whole entry): T6 sequence (P08235 whole entry)
As to the kind of experiment: Antagonist efficacy for mineralocorticoid receptor (hMR). The class given is functional.

For the next experiment, the target named is T8, Androgen receptor (Homo sapiens, UniProt P10275).
T8 sequence (P10275 whole entry): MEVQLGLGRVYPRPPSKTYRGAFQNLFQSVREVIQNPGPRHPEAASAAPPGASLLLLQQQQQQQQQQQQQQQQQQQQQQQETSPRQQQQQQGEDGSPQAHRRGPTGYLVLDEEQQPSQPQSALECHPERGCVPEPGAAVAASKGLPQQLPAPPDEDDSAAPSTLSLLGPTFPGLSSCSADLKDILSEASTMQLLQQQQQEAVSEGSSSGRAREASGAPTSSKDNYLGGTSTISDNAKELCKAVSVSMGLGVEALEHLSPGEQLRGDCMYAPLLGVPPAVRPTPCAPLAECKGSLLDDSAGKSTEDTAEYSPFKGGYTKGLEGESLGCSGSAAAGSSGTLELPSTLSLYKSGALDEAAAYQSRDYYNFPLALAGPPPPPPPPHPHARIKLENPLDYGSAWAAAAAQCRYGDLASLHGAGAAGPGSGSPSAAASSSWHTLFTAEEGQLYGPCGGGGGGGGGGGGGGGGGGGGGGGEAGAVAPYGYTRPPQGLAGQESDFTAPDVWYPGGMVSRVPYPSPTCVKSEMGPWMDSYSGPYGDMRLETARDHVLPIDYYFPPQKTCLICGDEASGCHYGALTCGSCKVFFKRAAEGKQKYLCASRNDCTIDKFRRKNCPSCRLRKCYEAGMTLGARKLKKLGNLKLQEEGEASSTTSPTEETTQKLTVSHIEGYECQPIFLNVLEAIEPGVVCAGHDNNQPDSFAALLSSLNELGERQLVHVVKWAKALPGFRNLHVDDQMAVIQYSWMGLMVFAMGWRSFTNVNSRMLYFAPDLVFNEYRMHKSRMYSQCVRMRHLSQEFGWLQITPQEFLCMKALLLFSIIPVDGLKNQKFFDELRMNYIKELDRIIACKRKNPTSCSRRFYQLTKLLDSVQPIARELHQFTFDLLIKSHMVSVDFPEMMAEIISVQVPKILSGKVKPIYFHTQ

For experiment [21], the target named is T1, Progesterone receptor. As to the kind of experiment: Effective concentration for human progesterone in T47D human breast cancer cell; not active (<20% efficacy and/or >10 mM potency). The class given is cell-based. The conditions noted are these: cancer cell lines.
Experiment [22] concerns the target T1, Progesterone receptor. This is another data set of the same source.
Description: Inhibition of human progesterone receptor activation in T47D human breast cancer cell.

Active and inactive are the calls of the source.

Description for Androgen receptor: Inhibition of antagonist activity towards Androgen receptor

As a reminder, the EC50 is the concentration that produces a half-maximal response. For orientation: IC50 means the midpoint of a concentration-inhibition curve. Higher therefore signals a need for much substance. Broadly, the Ki is a dissociation constant, usually derived from enzyme kinetics or from competition with a known ligand. For the compound `CC1=CC(C)(C)Nc2ccc3c(c21)COc1cc(C(F)(F)F)ccc1-3`, the EC50 entry at Progesterone receptor [1] and at Progesterone receptor [5] was “Not Active” throughout. In addition, the Efficacy entry in experiment [2] and in experiment [4] was “inactive” throughout. At Progesterone receptor [3], the IC50 result is “Not Active”. In addition, the Ki at Progesterone receptor [6] was above 1 µM.

`CC1=CC(C)(C)Nc2ccc3c(c21)COc1c-3cc(Br)c(C=O)c1F` returned a Ki on Progesterone receptor [7] of 0.29 µM. For the same compound, a half-maximal effect at Progesterone receptor [8] (EC50) was put at 0.576 µM.

In turn, `CC#C[C@]1(O)CC[C@H]2[C@@H]3CCC4=CC(=O)CCC4=C3[C@@H](c3ccc(N(C)C)cc3)C[C@@]21C` had an Efficacy in experiment [9] of 59%.

Regarding `COc1ccc2c(c1)OCc1c-2ccc2c1C(C)=CC(C)(C)N2`, the results for the EC50 at Progesterone receptor [10] and at Progesterone receptor [14] were 0.193 µM and above 1 µM, respectively. Also, the Efficacy was 24% in experiment [11], 85% in experiment [12] and 83% in [13]. On Progesterone receptor [15], this compound displayed a Ki of 0.357 µM. The IC50 at Progesterone receptor [16] amounted to 0.514 µM.

On to `CC1=CC(C)(C)Nc2ccc3c(c21)COc1ccc(F)cc1-3`, for which the IC50 result against Glucocorticoid receptor is “Not Active”; in [19], 3.16 µM; against Androgen receptor, 1.25 µM. Further, the Efficacy entry in [17] and in experiment [18] was “inactive” throughout. Moreover, in experiment [20], the Efficacy was found to be 30%.

Consider `CC1=CC(C)(C)Nc2ccc3c(c21)COc1c(Cl)cccc1-3`, for which the Efficacy result in experiment [2] is “inactive”. The EC50 entry on Progesterone receptor [21] is “Not Active”; at Progesterone receptor [8], 0.576 µM. At Progesterone receptor [22], the midpoint of inhibition, the IC50, lay at 0.782 µM.

For the origin of these results see ChEMBL document CHEMBL1144945, “Development of progesterone receptor antagonists from 1,2-dihydrochromeno[3,4-f]quinoline agonist pharmacophore” (Bioorg Med Chem Lett, 2003).
